This note sets out measurements from patent US20100304422A1, “In-Vitro Model of the Transformation of Metaplasia to Neoplasia” (priority 2009, published 2010).

The test system of experiment [1] is BAR-T cells. Nature of the experiment: Real-time RT-PCR mRNA expression, normalized to β actin. It counts as cell-based, human. The following applies: for molecular changes (mRNA), particularly transformation marker TC22: A alone (pH4) up to 34 weeks. Here is the method:
(§1) Cell line medium and cell culture—BAR-T cells were grown in special supplemented keratinocyte medium (KBM2) from Cambrex Bioscience (East Rutherford, N.J., USA), as per the protocol described by Jaiswal et al. Hydrochloric acid (A) was used to adjust the pH of the culture medium to experimental conditions. The bile acid, glycochenodeoxycholic acid, GCDA (Sigma, St. Louis, […]., USA), was diluted to optimum working concentration of 200 μM (B) with the culture medium adjusted to pH4 (A+B). 0.1×10^6 cells growing on six-well plates were incubated in A or A+B for 5 min in 24 h. For chronic exposure, cells were exposed for 5 min everyday to A only for up to 34 weeks and A+B for up to 84 weeks. No treatment was done on the day the cells were passed. The time was optimized from similar studies, showing that 5 min was sufficient for induction of signal transduction pathways regulating cellular machinery without cell damage. The cells were rinsed with phosphate buffered saline (PBS) before and after incubation with desired treatment medium. The control untreated cells were grown in parallel in the special medium as mentioned above at pH7.4. A portion of the cells were harvested every 4-6 weeks. Morphological Changes and Growth analysis—BAR-T cells that were exposed to A+B at various weeks were plated at 1×10^5 cells per well in 12 well plates and counted in triplicate using a Beckman Coulter Counter (Vi-CELL1.00). Cells were counted periodically and morphological changes were examined weekly. Foci assay: Cells were plated at 5×10^5 cells per 100 mm dishes (35). Untreated cells grown in parallel were also plated. Cells were grown for 4-5 weeks with regular medium changes beyond 100% confluency, fixed with 10% methanol, 10% acetic acid solution, and stained with 20% ethanol, 0.4% crystal violet for 5 min. Growth in soft agar: Each well of the six well plates was layered with base agar layer containing 0.8% agar in grown medium. […] Large (>1 mm) and small colonies (<1 mm) were visually identified, photographed and counted separately. […]
Background: Real-time PCR tracks product formation cycle by cycle.

Experiment [2] deals with BAR-T cells. Nature of the experiment: Morphological changes. Type of experiment: cell-based, human. Here is the method: as §1, with “The cells were rinsed with phosphate buffered saline (PBS) before and after incubation with desired treatment medium. The control untreated cells were grown in parallel in the special medium as mentioned above at pH7.4. A portion of the cells were harvested every 4-6 weeks.” left out, “weekly.” for “weekly. Foci assay: Cells were plated at 5×10^5 cells per 100 mm dishes (35). Untreated cells grown in parallel were also plated. Cells were grown for 4-5 weeks with regular medium changes beyond 100% confluency, fixed with 10% methanol, 10% acetic acid solution, and stained with 20% ethanol, 0.4% crystal violet for 5 min. Growth in soft agar: Each well of the six well plates was layered with base agar layer containing 0.8% agar in grown medium.”

SMILES strings stand for the structures.

For `Cl` [A, Hydrochloric acid], the “molecular changes (mRNA), particularly transformation marker TC22” value in experiment [1] was “did not show the above molecular changes”; in experiment [1] (listed as Acid (pH4)), “remained mostly unchanged”. For the same compound, the P53 expression result in experiment [1] (A alone up to 34 weeks) is listed as “minor increase”. The morphological changes entry in experiment [2] (chronic exposure to A alone, up to 34 weeks) is “did not show any morphological changes”.

Turning to `CC(CCC(=O)NCC(=O)O)C1CCC2C3C(O)CC4CC(O)CCC4(C)C3CCC12C` (centres unmarked) [B, glycochenodeoxycholic acid, reference compound], in experiment [2] (B alone up to 6 weeks, initial study), the “effect on BAR-T cells” value was “no appreciable effect”.
